Measurements reported in paper PMC9024523, “Phenoxyaromatic Acid Analogues as Novel Radiotherapy Sensitizers: Design, Synthesis and Biological Evaluation” (Molecules, 2022).
Several values for one entry are separate records, joined by “and”; a condition that tells them apart may be missing. Identical values can stand only once.

Test system: mouse red blood cells
Assay: In vitro red blood cell-based assay (oxygen equilibrium curve, Softron analyzer)
Conditions: final effector concentration 2 mM, mean ± SD; for P50/P50C: P50C = control with 1% DMSO; for P50: 1% DMSO; for P50 / ∆P50: mouse red blood cells; for ∆P50: ∆P50 = P50 − P50C
Description: In the first stage of our research, three series of analogues were designed and synthesized to explore refinement of the hydrophobic parts of 19f, 19m, 24a and 24b; hinge areas of 18g, 19b and 19y; and tail regions of 15c, 15d and 16c, respectively. We used the Softron Analyzer to evaluate the effect of these compounds on the half-blood oxygen saturation(P50) value of red blood cells. The most promising phenoxyaromatic acid compound, efaproxiral, was used as a positive control. […] The results reminded us that the modification of the hydrophobic part or linker extension is beneficial to improve an allosteric effect.
Eight-week-old female C57BL6J mice were purchased from Beijing Vital River Laboratory Animal Technology Co., Ltd. A total of 540 μL mouse blood was added into the 1.5 mL centrifuge tube, followed by adding 60 μL 3.8% sodium citrate. The mixture was then centrifuged at 1500 rpm for 10 min, the supernatant was carefully aspirated, and the cells were washed three times with PBS solution. After mixing packed red blood cells with Alsever’s solution in a ratio of 1:1, a blood gas analyzer (RADIOMETER ABL 90) was used to analyze the red blood cell density and hemoglobin concentration.
All of the compounds were prepared as 200 mM stock solutions in DMSO. Oxygen equilibrium measurements were performed with the Softron analyzer (Softron Medical Products, Beijing, China) using mouse red blood cells. The samples were prepared by adding 3 mg hemoglobin equivalent of red blood cells into 3.92 mL loading buffer (100 mM NaCl, 50 mM bis-Tris at pH 7.2 and 25 °C), followed by 20 μL 10% Dimethicone as a defoamer and 20 μL 20% BSA. Afterwards, 40 μL stock solution was added, and the mixture was loaded to the sample cell and fully deoxygenated by blowing into nitrogen at 37 °C for 15 min. Then, the oxygen equilibrium curve was recorded by blowing into oxygen.

Row | Compound | P50/P50C | P50 | ∆P50 | K (Hill coefficient of the oxygen dissociation curve at 50% saturation)
1 | CC(C)(Oc1ccc(CC(=O)Nc2ccc(C#N)cc2)cc1)C(=O)O [19q, 2-(4-(2-((4-cyanophenyl)amino)-2-oxoethyl)phenoxy)-2-methylpropanoic acid] | 1.32 ± 0.30 | 59.60 ± 13.58 mmHg | 14.36 ± 13.58 mmHg | –
2 | 2-(4-(2-([1,1′-biphenyl]-4-ylamino)ethyl)phenoxy)-2-methylpropanoic acid [18e] | 1.15 ± 0.37 | 51.84 ± 16.79 mmHg | 6.60 ± 16.79 mmHg | 2.28 ± 0.28
3 | Cc1cc(C)cc(NCCc2ccc(OC(C)(C)C(=O)O)cc2)c1 [18g, 2-(4-(2-((3,5-dimethylphenyl)amino)ethyl)phenoxy)-2-methylpropanoic acid] | 1.86 ± 0.05 | 77.54 ± 6.96 mmHg | 35.71 mmHg and 35.71 ± 2.14 mmHg | –
4 | CC(C)(Oc1ccc(CC(=O)Nc2cccc(-c3ccccc3)c2)cc1)C(=O)O [19p, 2-(4-(2-([1,1′-biphenyl]-3-ylamino)-2-oxoethyl)phenoxy)-2-methylpropanoic acid] | 1.87 ± 0.02 | 77.10 ± 0.66 mmHg | 35.91 mmHg and 35.91 ± 0.66 mmHg | –
5 | CC(C)(Oc1ccc(CC(=O)Nc2cc(Br)cc(Br)c2)cc1)C(=O)O [19h, 2-(4-(2-((3,5-dibromophenyl)amino)-2-oxoethyl)phenoxy)-2-methylpropanoic acid] | 1.87 ± 0.03 | 68.71 ± 1.18 mmHg | 31.90 ± 1.18 mmHg | –
6 | COc1ccc(NC(=O)Cc2ccc(OC(C)(C)C(=O)O)cc2)cc1 [19s, 2-(4-(2-((4-methoxyphenyl)amino)-2-oxoethyl)phenoxy)-2-methylpropanoic acid] | 1.45 ± 0.01 | 71.87 ± 0.64 mmHg | 22.29 ± 0.64 mmHg | –
7 | 7-(2-((3,5-dimethylphenyl)amino)-2-oxoethyl)-2,3-dihydrobenzo[b][1,4]dioxine-2-carboxylic acid [compound 20] | 1.12 ± 0.06 | 47.11 ± 8.08 mmHg | 5.27 ± 3.27 mmHg | 2.39 ± 0.16
8 | CC(C)(Oc1ccc(CC(=O)NC(c2ccccc2)c2ccccc2)cc1)C(=O)O [24e, 2-(4-(2-(benzhydrylamino)-2-oxoethyl)phenoxy)-2-methylpropanoic acid] | 1.33 ± 0.24 | 59.61 ± 20.96 mmHg | 15.61 ± 13.07 mmHg | –
9 | COC(=O)C(C)(C)Oc1ccc(CC(=O)Nc2cc(C)cc(C)c2)cc1 [15c, Methyl2-(4-(2-((3,5-dimethylphenyl)amino)-2-oxoethyl)phenoxy)-2methylpropanoate] | 0.96 ± 0.26 | 43.28 ± 11.71 mmHg | −1.96 ± 11.71 mmHg | –
10 | (E)-2-(4-(3-((4-bromophenyl)amino)-3-oxoprop-1-en-1-yl)phenoxy)-2-methylpropanoic acid [19u] | 1.67 ± 0.09 | 63.15 ± 3.48 mmHg | 25.24 ± 3.48 mmHg | 1.96 ± 0.17
11 | CC(C)(Oc1ccc(CC(=O)Nc2cc(Cl)cc(Br)c2)cc1)C(=O)O [19j, 2-(4-(2-((3-. bromo-5-chlorophenyl)amino)-2-oxoethyl)phenoxy)-2-methylpropanoic acid] | 1.82 ± 0.02 | 82.35 ± 0.80 mmHg | 37.11 ± 0.80 mmHg | –
12 | C#Cc1cccc(NC(=O)Cc2ccc(OC(C)(C)C(=O)O)cc2)c1 [19n-1, 2-(4-(2-((3-ethynylphenyl)amino)-2-oxoethyl)phenoxy)-2-methylpropanoic acid] | 1.79 ± 0.04 | 80.97 ± 1.77 mmHg | 38.73 mmHg and 38.73 ± 2.47 mmHg | –
13 | (E)-2-(4-(3-((3-iodophenyl)amino)-3-oxoprop-1-en-1-yl)phenoxy)-2-methylpropanoic acid [19v] | 1.71 ± 0.05 | 77.49 ± 2.11 mmHg | 32.25 ± 2.11 mmHg | 2.23 ± 0.28
14 | Cc1cccc(NC(=O)Cc2ccc(OC(C)(C)C(=O)O)cc2)c1Br [19l, 2-(4-(2-((2-bromo-3-methylphenyl)amino)-2-oxoethyl)phenoxy)-2-methylpropanoic acid] | 1.56 ± 0.04 | 70.41 ± 1.68 mmHg | 25.17 ± 1.68 mmHg | –
15 | 2-methyl-2-(4-(2-oxo-2-(o-tolylamino)ethyl)phenoxy)propanoic acid [19f] | 1.17 ± 0.04 | 53.78 ± 1.94 mmHg | 7.72 ± 1.87 mmHg | 2.26 ± 0.11
16 | CNC(=O)Cc1ccc(OC(C)(C)C(=O)O)cc1 [24h, 2-methyl-2-(4-(2-(methylamino)-2-oxoethyl)phenoxy)propanoic acid] | 1.40 ± 0.11 | 58.11 ± 1.93 mmHg | 16.27 ± 2.88 mmHg | –
17 | 2-(4-(1-((3,5-dimethylphenyl)carbamoyl)cyclopropyl)phenoxy)-2-methylpropanoic acid [19e] | 1.10 ± 0.04 | 46.24 ± 7.09 mmHg | 4.41 ± 2.27 mmHg | 2.40 ± 0.12
18 | C#Cc1cccc(NCCc2ccc(OC(C)(C)C(=O)O)cc2)c1 [18d, 2-(4-(2-((3-ethynylphenyl)amino)ethyl)phenoxy)-2-methylpropanoic acid] | 1.15 ± 0.05 | 52.25 ± 2.32 mmHg | 7.01 ± 2.32 mmHg | –
19 | CC1Cc2ccccc2N1C(=O)Cc1ccc(OC(C)(C)C(=O)O)cc1 (stereo not shown) [24b, 2-methyl-2-(4-(2-(2-methylindolin-1-yl)-2-oxoethyl)phenoxy)propanoic acid] | 1.46 ± 0.12 | 66.26 ± 5.30 mmHg | 21.02 ± 5.30 mmHg | –
20 | 2-(4-(2-((3-bromo-5-chlorophenyl)amino)ethyl)phenoxy)-2-methylpropanoic acid [18b] | 1.10 ± 0.03 | 42.61 ± 2.15 mmHg | 3.66 ± 0.88 mmHg | 2.19 ± 0.01
21 | COC(=O)C(Oc1ccc(CC(=O)Nc2cc(C)cc(C)c2)cc1)c1ccccc1 (stereo not shown) [15b, Methyl2-(4-(2-((3,5-dimethylphenyl)amino)-2-oxoethyl)phenoxy)-2-phenylacetate] | 1.28 ± 0.19 | 57.82 ± 8.69 mmHg | 12.58 ± 8.69 mmHg | –
22 | CC(C)(Oc1ccc(CC(=O)Nc2ccc3ccccc3c2)cc1)C(=O)O [24d, 2-methyl-2-(4-(2-(naphthalen-2-ylamino)-2-oxoethyl)phenoxy)propanoic acid] | 1.93 ± 0.01 | 79.50 ± 0.47 mmHg | 38.31 mmHg and 38.31 ± 0.47 mmHg | –
23 | Cc1cc(C)cc(NC(=O)c2ccc(OC(C)(C)C(=O)O)cc2)c1 [19b, 2-(4-((3,5-dimethylphenyl)carbamoyl)phenoxy)-2-methylpropanoic acid] | 1.04 ± 0.05 | 43.01 ± 2.18 mmHg | 1.82 ± 2.18 mmHg | –
24 | CC(C)(Oc1ccc(CC(=O)Nc2ccc3c(c2)OCO3)cc1)C(=O)O [24c, 2-(4-(2-(benzo[d][1,3]dioxol-5-ylamino)-2-oxoethyl)phenoxy)-2-methylpropanoic acid] | 1.58 ± 0.01 | 69.62 ± 12.16 mmHg | 25.61 ± 4.27 mmHg | –
25 | CC(C)(Oc1ccc(CC(=O)N(Cc2ccccc2)Cc2ccccc2)cc1)C(=O)O [24f, 2-(4-(2-(dibenzylamino)-2-oxoethyl)phenoxy)-2-methylpropanoic acid] | 1.23 ± 0.12 | 54.51 ± 14.91 mmHg | 10.51 ± 7.02 mmHg | –
26 | CCN(CC)c1ccc(NC(=O)Cc2ccc(OC(C)(C)C(=O)O)cc2)cc1 [19r, 2-(4-(2-((4-(diethylamino)phenyl)amino)-2-oxoethyl)phenoxy)-2-methylpropanoic acid] | 1.57 ± 0.02 | 65.81 ± 6.64 mmHg | 23.97 ± 1.82 mmHg | –
27 | CC(C)(Oc1ccc(CC(=O)Nc2ccccc2Br)cc1)C(=O)O [19k, 2-(4-(2-((2-bromophenyl)amino)-2-oxoethyl)phenoxy)-2-methylpropanoic acid] | 1.34 ± 0.29 | 49.17 ± 10.7 mmHg | 12.36 ± 10.79 mmHg | –
28 | CSc1ccc(NC(=O)Cc2ccc(OC(C)(C)C(=O)O)cc2)cc1 [19m, 2-methyl-2-(4-(2-((4-(methylthio)phenyl)amino)-2-oxoethyl)phenoxy)propanoic acid] | 1.80 ± 0.02 | 74.24 ± 0.69 mmHg | 33.05 mmHg and 33.05 ± 0.69 mmHg | –
29 | Cc1cc(C)cc(NC(=O)CCCc2ccc(OC(C)(C)C(=O)O)cc2)c1 [19d, 2-(4-(4-((3,5-dimethylphenyl)amino)-4-oxobutyl)phenoxy)-2-methylpropanoic acid] | 1.60 ± 0.02 | 67.93 ± 8.80 mmHg | 25.43 ± 3.71 mmHg | –
